Test results published in ChEMBL document CHEMBL1201862, “PubChem BioAssay data set” (2004).
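Exposure lasted 48 hours, with cells grown in 96-well plates and compounds tested at five concentrations. GI50 marks 50% less growth.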 Active and inactive are the calls of the source. Rule as the data show it: active = GI50 up to about 1.1 µM and inactive = higher.

Experiments:
Experiment in all cases: growth of human tumour cells (NCI), 48 h
PC-3 = test system: PC-3
MOLT-4 = test system: MOLT-4
A549 = test system: A549
HCC 2998 = test system: HCC 2998
SNB-19 = test system: SNB-19
786-0 = test system: 786-0
LOX IMVI = test system: LOX IMVI
M14 = test system: M14
ACHN = test system: ACHN
UO-31 = test system: UO-31
HOP-62 = test system: HOP-62
SF-295 = test system: SF-295
BT-549 = test system: BT-549
Malme-3M = test system: Malme-3M
K562 = test system: K562
HOP-92 = test system: HOP-92
OVCAR-4 = test system: OVCAR-4
SK-MEL-2 = test system: SK-MEL-2
NCI/ADR-RES = test system: NCI/ADR-RES
OVCAR-5 = test system: OVCAR-5

Row | SMILES | GI50 (PC-3) | GI50 (MOLT-4) | GI50 (A549) | GI50 (HCC 2998) | GI50 (SNB-19) | GI50 (786-0) | GI50 (LOX IMVI) | GI50 (M14) | GI50 (ACHN) | GI50 (UO-31) | GI50 (HOP-62) | GI50 (SF-295) | GI50 (BT-549) | GI50 (Malme-3M) | GI50 (K562) | GI50 (HOP-92) | GI50 (OVCAR-4) | GI50 (SK-MEL-2) | GI50 (NCI/ADR-RES) | GI50 (OVCAR-5)
1 | O=S(=O)(NC1CCCCC1)c1ccc2c(c1)OCCOCCOCCOCCO2 | > 100 µM (inactive) | > 100 µM (inactive) | > 100 µM (inactive) | > 100 µM (inactive) | > 100 µM (inactive) | > 100 µM (inactive) | > 100 µM (inactive) | > 100 µM (inactive) | > 100 µM (inactive) | > 100 µM (inactive) | > 100 µM (inactive) | > 100 µM (inactive) | > 100 µM (inactive) | > 100 µM (inactive) | > 100 µM (inactive) | – | – | – | – | –
2 | S=C(Nc1cc(Cl)c(Cl)cc1Cl)SCc1ccccc1 | 32 µM (inactive) | 22.8 µM (inactive) | 30 µM (inactive) | – | 28.6 µM (inactive) | 38.2 µM (inactive) | – | 34.9 µM (inactive) | 20.5 µM (inactive) | 40.6 µM (inactive) | 26 µM (inactive) | 19.4 µM (inactive) | 26.2 µM (inactive) | 28.2 µM (inactive) | 18.5 µM (inactive) | 21.3 µM (inactive) | 22.2 µM (inactive) | > 100 µM (inactive) | 24.9 µM (inactive) | 22.8 µM (inactive)
3 | O=C1CCC2(c3ccc(Cl)cc3)Nc3ccncc3N12 (stereo not given) | > 10 µM (inactive) | > 10 µM (inactive) | > 10 µM (inactive) | – | > 10 µM (inactive) | > 10 µM (inactive) | > 10 µM (inactive) | > 10 µM (inactive) | > 10 µM (inactive) | > 10 µM (inactive) | – | > 10 µM (inactive) | > 10 µM (inactive) | > 10 µM (inactive) | > 10 µM (inactive) | > 10 µM (inactive) | > 10 µM (inactive) | > 10 µM (inactive) | > 10 µM (inactive) | > 10 µM (inactive)
4 | C/C=C/CC(C(=O)OCC)(N(C)C(=O)OC(C)(C)C)S(=O)(=O)c1ccc(C)cc1 (stereo not given) | 71.8 µM (inactive) | > 100 µM (inactive) | 85.9 µM (inactive) | – | > 100 µM (inactive) | > 100 µM (inactive) | > 100 µM (inactive) | 50.6 µM (inactive) | > 100 µM (inactive) | > 100 µM (inactive) | > 100 µM (inactive) | 63.7 µM (inactive) | > 100 µM (inactive) | > 100 µM (inactive) | 70.5 µM (inactive) | > 100 µM (inactive) | > 100 µM (inactive) | 51.6 µM (inactive) | 69.2 µM (inactive) | > 100 µM (inactive)
5 | COc1ccc(-c2cc(-c3cc(F)c(Cl)cc3Cl)on2)cc1OC | 18.7 µM (inactive) | 5.82 µM (inactive) | 30.8 µM (inactive) | – | > 100 µM (inactive) | 63.8 µM (inactive) | 31.2 µM (inactive) | 24.9 µM (inactive) | 37.2 µM (inactive) | 95.9 µM (inactive) | 15.6 µM (inactive) | 13.2 µM (inactive) | 33 µM (inactive) | 45.3 µM (inactive) | 3.96 µM (inactive) | 30.1 µM (inactive) | 10.1 µM (inactive) | 17.1 µM (inactive) | 11.4 µM (inactive) | > 100 µM (inactive)
6 | CN(C)CCNC(=O)c1cccc2c(NC(CCCNC(=N)N)C(=O)O)c3ccccc3[n+](C)c12 (stereo not given) | 79.8 µM (inactive) | 47.8 µM (inactive) | 78.5 µM (inactive) | 69.5 µM (inactive) | > 100 µM (inactive) | 71 µM (inactive) | 66.1 µM (inactive) | > 100 µM (inactive) | 68.7 µM (inactive) | > 100 µM (inactive) | 68.1 µM (inactive) | > 100 µM (inactive) | > 100 µM (inactive) | 86.7 µM (inactive) | > 100 µM (inactive) | – | > 100 µM (inactive) | > 100 µM (inactive) | 27.7 µM (inactive) | > 100 µM (inactive)
7 | O=C1CCC2(CC1)Cc1ccccc1C2O (stereo not given) | > 100 µM (inactive) | > 100 µM (inactive) | > 100 µM (inactive) | > 100 µM (inactive) | > 100 µM (inactive) | > 100 µM (inactive) | > 100 µM (inactive) | > 100 µM (inactive) | > 100 µM (inactive) | > 100 µM (inactive) | > 100 µM (inactive) | > 100 µM (inactive) | > 100 µM (inactive) | > 100 µM (inactive) | > 100 µM (inactive) | – | > 100 µM (inactive) | > 100 µM (inactive) | > 100 µM (inactive) | > 100 µM (inactive)
8 | O=c1[nH]n(Cc2ccccc2)c2ccc([N+](=O)[O-])cc12 | 37.2 µM (inactive) | 34.7 µM (inactive) | 61 µM (inactive) | 36.3 µM (inactive) | > 100 µM (inactive) | 82.4 µM (inactive) | 88.7 µM (inactive) | 46.2 µM (inactive) | > 100 µM (inactive) | 45.5 µM (inactive) | > 100 µM (inactive) | 66.8 µM (inactive) | – | 44.5 µM (inactive) | 28.8 µM (inactive) | 55.8 µM (inactive) | > 100 µM (inactive) | 47.8 µM (inactive) | 34.8 µM (inactive) | > 100 µM (inactive)
9 | CCP(=O)(OC)C1=CCN(C(=O)OCC[Si](C)(C)C)CC1 (stereo not given) | > 100 µM (inactive) | > 100 µM (inactive) | > 100 µM (inactive) | > 100 µM (inactive) | > 100 µM (inactive) | > 100 µM (inactive) | > 100 µM (inactive) | > 100 µM (inactive) | > 100 µM (inactive) | > 100 µM (inactive) | > 100 µM (inactive) | > 100 µM (inactive) | – | > 100 µM (inactive) | > 100 µM (inactive) | > 100 µM (inactive) | > 100 µM (inactive) | > 100 µM (inactive) | > 100 µM (inactive) | > 100 µM (inactive)
10 | CN(C)CCOc1ccc(I)cc1Cc1ccccc1 | 8.28 µM (inactive) | 5.21 µM (inactive) | 15.5 µM (inactive) | 3.29 µM (inactive) | 13.7 µM (inactive) | 10.7 µM (inactive) | 5.2 µM (inactive) | 2.66 µM (inactive) | 12.2 µM (inactive) | 7.69 µM (inactive) | 13.9 µM (inactive) | 15.4 µM (inactive) | 14 µM (inactive) | 15.9 µM (inactive) | 3.39 µM (inactive) | – | 11.8 µM (inactive) | 15 µM (inactive) | 13.8 µM (inactive) | 14.7 µM (inactive)
11 | COC(=O)C(Cc1ccccc1)NP(=O)(O)OCC1OC(n2cc(F)c(=O)[nH]c2=O)CC1O (stereo not given) | > 78.5 µM (inactive) | 4.78 µM (inactive) | 0.955 µM (active) | 2.39 µM (inactive) | 3.34 µM (inactive) | 4.14 µM (inactive) | 3.21 µM (inactive) | 21.3 µM (inactive) | 1.44 µM (inactive) | 5.24 µM (inactive) | 2.58 µM (inactive) | 3.72 µM (inactive) | > 100 µM (inactive) | > 100 µM (inactive) | 65.3 µM (inactive) | – | > 100 µM (inactive) | > 100 µM (inactive) | 5.7 µM (inactive) | > 100 µM (inactive)
12 | CCOC(=O)c1nc2ccccc2nc1Nc1cc(OC)c(OC)c(OC)c1 | – | > 100 µM (inactive) | > 100 µM (inactive) | > 100 µM (inactive) | > 100 µM (inactive) | > 100 µM (inactive) | – | > 100 µM (inactive) | > 100 µM (inactive) | > 100 µM (inactive) | > 100 µM (inactive) | > 100 µM (inactive) | > 100 µM (inactive) | > 100 µM (inactive) | > 100 µM (inactive) | > 100 µM (inactive) | > 100 µM (inactive) | > 100 µM (inactive) | > 100 µM (inactive) | > 100 µM (inactive)
13 | CC(=O)OCC(C)(COC(C)=O)N1C(=O)C2C3c4ccccc4C(c4ccccc43)C2C1=O (stereo not given) | > 100 µM (inactive) | > 100 µM (inactive) | > 100 µM (inactive) | – | > 100 µM (inactive) | > 100 µM (inactive) | > 100 µM (inactive) | > 100 µM (inactive) | > 100 µM (inactive) | > 100 µM (inactive) | – | > 100 µM (inactive) | > 100 µM (inactive) | – | > 100 µM (inactive) | > 100 µM (inactive) | – | – | – | > 100 µM (inactive)
14 | Clc1cc(-c2ccccc2)nc(Nc2nc3ccccc3[nH]2)n1 | 44.7 µM (inactive) | 22.3 µM (inactive) | > 100 µM (inactive) | – | 83 µM (inactive) | 16.5 µM (inactive) | – | 23.7 µM (inactive) | 17.5 µM (inactive) | 55 µM (inactive) | – | 37.1 µM (inactive) | 22.9 µM (inactive) | 28.2 µM (inactive) | 4.05 µM (inactive) | 2.2 µM (inactive) | 15.9 µM (inactive) | > 10 µM (inactive) | 43.5 µM (inactive) | > 100 µM (inactive)
15 | COc1cc([C@@H]2c3cc4c(cc3[C@@H](/N=C/c3ccc(C(=O)O[C@H]5C[C@H]6OC[C@@]6(OC(C)=O)[C@H]6[C@H](OC(=O)c7ccccc7)[C@]7(O)C[C@H](OC(=O)[C@H](OC(=O)c8ccc(/C=N/[C@@H]9c%10cc%11c(cc%10[C@@H](c%10cc(OC)c(O)c(OC)c%10)[C@H]%10C(=O)OC[C@@H]%109)OCO%11)cc8)[C@@H](NC(=O)c8ccccc8)c8ccccc8)C(C)=C([C@@H](OC(C)=O)C(=O)[C@]56C)C7(C)C)cc3)C3COC(=O)C32)OCO4)cc(C)c1O (stereo not given in full) | 6.58 µM (inactive) | 16.3 µM (inactive) | 13.7 µM (inactive) | > 50 µM (inactive) | 17.5 µM (inactive) | 7.55 µM (inactive) | 22.9 µM (inactive) | 6.49 µM (inactive) | 20.8 µM (inactive) | – | 12.7 µM (inactive) | 5.07 µM (inactive) | 49.7 µM (inactive) | > 24 µM (inactive) | 2.19 µM (inactive) | – | > 29.6 µM (inactive) | 13.7 µM (inactive) | 15.2 µM (inactive) | > 15.5 µM (inactive)
